In patent publication US20230263773A1, “COMBINATION THERAPY WITH DEOXYURIDINE TRIPHOSPHATASE INHIBITORS” (CV6 Therapeutics (NI) Limited, priority 2020, published 2023):

Columns and labels:
Format in all cases: cell-based
[1] = tested on: HMGB1; test: Extracellular release of HMGB1 into cell culture media by ELISA; details: 12.5 μM Compound A, 1 μM FUdR; 24 hours
Source text: Experimental Overview. High mobility group box 1 (HMGB1) is a nuclear non-histone chromatin-binding protein. The release of HMGB1 by immune cells or severely damaged cancer cells functions as an immunostimulatory chemokine and is a well-known damage-associated molecular pattern (DAMP). The release of HMGB1 during cell death is characteristic of immunogenic cell death, a sub-class of cell death that results in the potent stimulation of the innate and subsequently the stimulation of adaptive immune responses. HMGB1 functions as a pro-inflammatory cytokine-like factor and can form hetero-complexes with other immune regulators. HMGB1 binds to TLRs, RAGE and CXCR4 on immune cells stimulating chemotaxis and the secretion of pro-inflammatory factors. HCT116 colon carcinoma and JU77 mesothelioma cells were treated with vehicle control (DMSO), 12.5 μM Compound A, 1 μM FUdR, or the combination of 12.5 μM Compound A and 1 μM FUdR for 24 hours and the release of HMGB1 into the extracellular culture media was measured by ELISA.
Cell Line Model Selection and Preparation. The HCT116 cancer cell line was purchased from ATCC. JU77 cell line was a kind gift from Dr Dan Longley, QUB. Cells were cultured and expanded in humidified incubators at 5% CO2 until sufficient cells were available.
Drug Preparation and Treatments. All drugs/compounds were prepared freshly in cell culture media from 50 mM frozen stocks prior to treatment. Cells were seeded in 6-well culture dishes and allowed to adhere overnight before treatment with Compound A, FUdR, or Compound A in combination with FUdR. Additional wells were treated with doxorubicin to act as a positive inducer of HMGB1. Twenty-four hours after treatment, the media was aspirated and centrifuged (2500 rpm, 5 min, at 4° C.) to remove any cellular debris. The supernatant was collected for immediate processing or stored at −80° C. for later assay.
Detection of HMGB1 Release. HMGB1 was quantified using the HMGB1 ELISA kit (ST51011, IBL International). Enzyme conjugate (HMGB1 conjugated to peroxidase) and standard were reconstituted in 12 ml enzyme conjugate diluent, and 1 ml diluent buffer respectively and aliquots frozen at −80° C. until required. All reagents and samples were brought to room temperature immediately prior to use. A standard curve was prepared for the high sensitive detection range (0.313-10 ng/ml). 50 μl diluent buffer was pipetted into each well of the microtiter plate. 50 μl of standard, sample, positive control or negative control (diluent buffer) was pipetted, in duplicate, into respective wells as determined by the plate set up. The plate was covered with adhesive foil and incubated at 37° C. for 20 to 24 hours on an orbital shaker (450 rpm). Following the incubation period the incubation solution was discarded and the plate washed (5×300 μl per well). Excess wash buffer was removed by inversion on to a paper towel. 100 μl enzyme conjugate was added to each well, the plate covered with adhesive foil and incubated at 25° C. for 2 hours on an orbital shaker (450 rpm). Following the incubation the solution was discarded and the plate washed as before. Fresh color solution was prepared immediately prior to use and 100 μl added to each well using a multichannel pipette. The plate was then incubated for 30 minutes at room temperature. The color reaction was stopped by pipetting 100 μl of stop reagent to each well using a multichannel pipette. The plate was shaken gently to mix and the backs of the wells were cleaned using a lint-free tissue. The concentration of HMGB1 was determined on a CLARIOstar microplate reader by measuring the absorbance at 450 nm using a reference reading at 640 nm. Data was exported to Microsoft Excel for processing and statistical analysis consisting of one-way ANOVA with Tukey's Multiple Comparisons Test was performed in GraphPad Prism 6.

[2] = tested on: PD-L1; test: Cell-surface PD-L1 expression by flow cytometry; details: 12.5 μM Compound A, 1 μM FUdR; 24 hours
Procedure: (§1) Experimental Overview. Programmed death-ligand 1 (PD-L1) is a type 1 transmembrane protein that plays a major role in suppressing the innate and adaptive arms of the immune system. The PD-1/PD-L1 pathway represents an adaptive immune resistance mechanism exerted by tumor cells in response to endogenous immune anti-tumor activity and is a well-established therapeutic target in cancer therapy. Cancer cells were treated with vehicle control (DMSO), the fluoropyrimidine FUdR (also known as floxuridine) alone, Compound A alone, or the combination of Compound A and FUdR, and the expression level of the immune checkpoint protein PD-L1 was measured by both Western blotting and flow cytometry and compared to control. Cell lines assayed for total PD-L1 protein expression by Western blotting included, pancreatic cancer, PANC-1; non-small cell lung cancer, H460; colorectal cancer, HCT116; breast cancer, MCF-7; melanoma, MeWo. Two cell lines were advanced to analyze cell surface PD-L1 by flow cytometry, MCF-7 and PANC-1.
Cell Surface Flow Cytometry. Cells were seeded in 6-well plates and permitted to adhere overnight. Media was removed and replaced with media containing the indicated concentrations of Compound A, FUdR or a combination of both, positive control cells were treated with IFNγ. Cells were then incubated for 24 hours. At the conclusion of specified timepoints, cells were washed with PBS and removed from the plates using trypsin-EDTA. Cells were counted and 300,000 cells were washed in staining buffer and incubated in PD-L1 or IgG antibody on ice for 40 minutes. Cells were then washed in staining buffer twice and finally resuspended in 300 μL of staining buffer and transferred to BD Falcon™ round-bottom tube. Dot plot for FSC v SSC were used to gate cell population and doublets were excluded on FL-4 histogram height versus area/width. IgG isotype control stained sample was used to identify the positively stained population. Percentage positive population and median fluorescent intensity values were exported and analyzed in Microsoft Excel and GraphPad Prism 6. Statistical analysis consisted of one-way ANOVA with Tukey's multiple comparisons testing.

[3] = tested on: calreticulin; test: Cell surface calreticulin by flow cytometry; details: 6.25 μM Compound A, 1 μM FUdR, 500 nmol/L doxorubicin; 4 hours
Source text: Experimental Overview. Tumor cells undergoing immunogenic cell death (ICD) emit damage associated molecular patterns (DAMPs). ICD is a sub-class of cell death that results in the potent stimulation of the innate immune system and subsequently the stimulation of adaptive immune responses. The cell surface expression of calreticulin during cell death is one of several established DAMPs characteristic of immunogenic cell death. Calreticulin translocates from the endoplasmic reticulin to the cell membrane where it functions as a potent “eat me” signal for macrophages and dictates tumor antigen transfer and therefore the immunogenicity of cancer cell death. PANC1 pancreatic carcinoma cells were treated with vehicle control (DMSO), 6.25 μM Compound A, 1 μM FUdR, or the combination of 6.25 μM Compound A and 1 μM FUdR for 4 hours and the concentration of cell surface calreticulin was deteremined by flow cytometry.
Cell Line Model Selection and Preparation. The PANC1 pancreatic cancer cell line was purchased from ATCC. Cells were cultured and expanded in humidified incubators at 5% CO2 until sufficient cells were available.
Drug Preparation and Treatments. All drugs/compounds were prepared freshly in cell culture media from 50 mM frozen stocks prior to treatment. Cells were seeded in 6-well plates and permitted to adhere overnight. Media was removed and replaced with media containing 6.25 μM Compound A, 1 μM FUdR or a combination of 6.25 μM Compound A and 1 μM FUdR. […]
Detection of Cell Surface Calreticulin. Cell surface calreticulin was quantified by flow cytometry. […] Cells were counted and 300,000 cells were washed in staining buffer and incubated in Calreticulin (D3E6) XP Alexa Fluor 488 Conjugate antibody (Cell Signaling) or IgG antibody (negative control antibody) on ice for 40 minutes. […] The IgG isotype control stained sample was used to correctly identify the positively stained population in which median fluorescence intensity was determined. Median fluorescence intensity values were exported and analyzed in Microsoft Excel and GraphPad Prism 6. […]

[4] = tested on: PD-L1; test: Total PD-L1 expression by Western blotting in cancer cell lines; details: 12.5 μM Compound A
Procedure: as §1
Western Blotting. Cells were cultured in the presence of the indicated concentrations of Compound A, 5-fluorodeoxyuridine (FUdR), or a combination of both in a P100 cell culture dishes for 12 or 24 hours. At the conclusion of specified time-points, cells were scraped in PBS containing NaF and Na3VO4, pelleted by centrifugation, washed with PBS and pelleted again. […] The concentration of the isolated supernatant was determined by BCA assay on a CLARIOstar microplate reader and the required volume of whole-cell lysate was denatured by the addition of Sample Buffer, Laemmli 2×Concentrate followed by boiling at 95° C. for 5 min. […] Images were analyzed in ImageJ to obtain PD-L1 relative density values which were normalised to relative density of loading control. Once the primary image acquisition was complete, the pre-cast gels and corresponding immunoblots were further imaged for total protein as a quality control measure following a UV-induced 1-minute reaction to produce fluorescence. […]

[5] = tested on: cytoplasmic dsDNA; test: Cytoplasmic dsDNA by fluorescence microscopy; details: 12.5 μM Compound A, 1 μM FUdR; 24 hours
Procedure: Experimental Overview. Aberrant host DNA metabolism as a result of failed cell division or genotoxic stress leads to the release of nuclear DNA into the cytoplasm and is a well-known damage-associated molecular pattern. The subsequent detection of cytoplasmic double-stranded DNA (dsDNA) by pattern recognition receptors triggers a variety of innate immune signaling and biological responses. HCT116 colon and PANC-1 pancreatic carcinoma cells were seeded on coverslips and treated with vehicle control (DMSO), 12.5 μM Compound A, 1 μM FUdR, or the combination of 12.5 μM Compound A and 1 μM FUdR for 24 hours. At 24 hours post-treatment cells were fixed and stained with an anti-dsDNA (double-stranded DNA) antibody and the nuclear stain DAPI. Immunofluorescence was detected and images acquired by fluorescence microscopy to quantify levels of dsDNA in the cytoplasm.
Cell lines, Drug Treatments and Fluorescence Microscopy. HCT116 colon and PANC-1 pancreatic carcinoma cells (5×10^4) were seeded onto glass coverslips within 24-well plates in relevant media. The following day, seeding media was removed and replaced with drug-containing media and incubated for 24 hours. At 24 […] hours post-treatment cells were fixed and processed. Briefly, cell membranes were permeabilised, incubated with FITC-conjugated dsDNA marker antibody (HYB331-01) from Santa Cruz Biotechnology, sc-58749 (1:500 dilution) and mounted onto slides with ProLong Gold antifade with DAPI (Invitrogen P36931). Images were acquired on a Nikon Fluorescent Microscope. Exposure time was selected for FITC using negative and positive controls and kept constant throughout image acquisition. Images were analyzed using ImageJ software. Cell nuclei were identified using DAPI staining. Intensity of cytoplasmic dsDNA staining was established by quantifying the intensity of the staining in the immediate area surrounding the nucleus. Software settings: Gaps to ring=3 and Ring size=25 (FIG. 16).

SMILES: C[C@@H](NS(=O)(=O)CCCCCN1CC(=O)NC1=O)c1ccc(F)c(OCC2CC2)c1 [Compound A]
- increase in concentration of HMGB1 in cell culture media compared to control, HCT116 cells [1]: no significant difference
- increase in concentration of HMGB1 in cell culture media compared to control, JU77 cells [1]: no significant difference
- increase in cell-surface PD-L1 expression compared to control, MCF-7 cells [2]: No significant difference
- increase in cell-surface PD-L1 expression compared to control, PANC-1 cells [2]: the same as vehicle control cells
- increase in cell surface expression of calreticulin compared to control, PANC1 cells [3]: no significant difference
- total PD-L1 expression, all cell lines ([4]; MeWo, MCF-7, HCT116, H460, PANC-1, 12 and 24 hours): unchanged
- increase in mean relative cytoplasmic DNA compared to vehicle-treated control, HCT116 cells [5]: no statistically significant difference
- increase in mean relative cytoplasmic DNA compared to vehicle-treated control, PANC-1 cells [5]: 74%

SMILES: O=c1[nH]c(=O)n([C@H]2C[C@H](O)[C@@H](CO)O2)cc1F [FUdR]
- increase in concentration of HMGB1 in cell culture media compared to control, HCT116 cells [1]: no significant difference
- increase in concentration of HMGB1 in cell culture media compared to control, JU77 cells [1]: no significant difference
- increase in cell-surface PD-L1 expression compared to control, MCF-7 cells [2]: 4.7 fold
- increase in cell-surface PD-L1 expression compared to control, PANC-1 cells [2]: ~10 fold
- increase in cell surface expression of calreticulin compared to control, PANC1 cells [3]: no significant difference
- total PD-L1 expression in HCT116, MCF-7, PANC-1 and Mewo cell lines ([4]; 1 μM FUdR, 12 and 24 hours, compared to control): significant increase
- total PD-L1 expression in H460 cell line ([4]; PD-L1 high at baseline, 1 μM FUdR): did not induce
- increase in mean relative cytoplasmic DNA compared to vehicle-treated control, HCT116 cells [5]: no statistically significant difference
- increase in mean relative cytoplasmic DNA compared to vehicle-treated control, PANC-1 cells [5]: 56%

SMILES: COc1cccc2c1C(=O)c1c(O)c3c(c(O)c1C2=O)C[C@@](O)(C(=O)CO)C[C@@H]3O[C@H]1C[C@H](N)[C@H](O)[C@H](C)O1 [doxorubicin]
- increase in concentration of HMGB1 in cell culture media compared to control, HCT116 cells [1]: 213%
- increase in concentration of HMGB1 in cell culture media compared to control, JU77 cells [1]: failed to elicit any significant increase
- increase in cell surface expression of calreticulin compared to control, PANC1 cells [3]: 450%
